In US12582619B2 (priority 2020, dated 2026):
Entries after “also recorded” stand apart in the source; their conditions may differ.

What was measured:
[1] = biological target: Sigma1 (Homo sapiens, UniProt Q99720); assay: Sigma1 binding, Ki
[2] = biological target: T1, Androgen Receptor (Homo sapiens, UniProt P10275); assay: cell-based
T1 sequence (P10275 1-920): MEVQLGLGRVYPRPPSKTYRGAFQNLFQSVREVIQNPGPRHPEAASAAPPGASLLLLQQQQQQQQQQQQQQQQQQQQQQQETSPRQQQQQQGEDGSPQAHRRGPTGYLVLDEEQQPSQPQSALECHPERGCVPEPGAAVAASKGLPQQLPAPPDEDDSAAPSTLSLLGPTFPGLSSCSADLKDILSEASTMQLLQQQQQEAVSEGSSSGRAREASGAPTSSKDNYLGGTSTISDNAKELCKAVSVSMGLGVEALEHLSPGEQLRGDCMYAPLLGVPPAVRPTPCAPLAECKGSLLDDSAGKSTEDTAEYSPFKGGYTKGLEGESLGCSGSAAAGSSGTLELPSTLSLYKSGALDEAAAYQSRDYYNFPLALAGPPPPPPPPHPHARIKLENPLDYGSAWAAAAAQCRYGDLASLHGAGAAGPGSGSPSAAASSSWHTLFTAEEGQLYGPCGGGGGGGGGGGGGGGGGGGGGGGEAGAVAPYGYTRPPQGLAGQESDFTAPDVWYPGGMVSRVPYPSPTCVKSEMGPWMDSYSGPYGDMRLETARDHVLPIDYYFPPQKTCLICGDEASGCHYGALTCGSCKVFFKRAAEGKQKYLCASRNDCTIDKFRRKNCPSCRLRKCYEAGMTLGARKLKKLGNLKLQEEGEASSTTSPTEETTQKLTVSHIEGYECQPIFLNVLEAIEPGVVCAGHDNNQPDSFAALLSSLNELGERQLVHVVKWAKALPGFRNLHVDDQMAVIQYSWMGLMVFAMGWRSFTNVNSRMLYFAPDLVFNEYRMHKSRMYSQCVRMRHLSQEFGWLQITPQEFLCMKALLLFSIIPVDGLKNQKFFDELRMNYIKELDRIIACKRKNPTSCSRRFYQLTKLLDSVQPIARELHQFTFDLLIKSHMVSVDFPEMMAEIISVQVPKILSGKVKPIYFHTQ

[3] = test system: SARS-CoV-2; assay: Infection of Huh7.5 cells by replication competent SARS-CoV-2, qRT-PCR; assay type: cell-based; settings: 10 μM, 24 hours post inoculation
Description: FIG. 3 illustrates the finding that only certain Sigma1 inhibitors block SARS-CoV-2 infection. […] Results can be compared to vehicle (DMSO), Remdesivir (Rem, 10 μM), and hydroxychloroquine (HCQ, 10 μM). Compounds and SARS-CoV-2 were added to cell culture; 24 hours post inoculation relative infection calculated by qRT-PCR.
A discrete set of Sigma1 modulators was tested in an assay of replication competent SARS-CoV-2 infectivity. […] Strikingly, IPAG, CT189, and CT1107 blocked SARS-CoV-2 infection by 1,000 (IPAG, CT189, CT360) to 10,000 (CT1107) fold.

[4] = biological target: T1, Androgen Receptor
[5] = test system: TMPRSS2 mRNA transcript; assay: TMPRSS2 transcript levels in LNCaP cells; settings: 10 μM, FIG. 1B
[6] = test system: Dengue Virus; assay: Dengue virus infection of U2OS cells, qPCR; assay type: cell-based; settings: MOI 1, ~16-18 hours, CT110 10 μM, CT1107 2.5-10 μM, FIG. 10
Description: (§1) U2OS cells were treated with DMSO or 10 μM of CT110 (also known as CT189, left graph) or DMSO or 2.5 μM, 5 μM, 7.5 μM, and 10 μM CT1107 (right graph). 2 hours after starting treatment, U2OS cells were infected with a multiplicity of infection (MOI) of 1 for Dengue Virus and incubated at 37° C. for ˜16-18 hours. Cells were harvested with Trizol and RNA was extracted for qPCR. Y-axis indicates fold change in infection.

[7] = test system: Zika Virus; assay: Zika virus infection of U2OS cells, qPCR; assay type: cell-based; settings: MOI 1, ~16-18 hours, CT110 10 μM, CT1107 2.5-10 μM, FIG. 11
Description: as §1, with “Zika” for “Dengue”

[8] = test system: Powassan Virus; assay type: cell-based; settings: U2OS, MOI 1, ~16-18 hours; CT110 10 μM, CT1107 2.5-10 μM, FIG. 12
[9] = test system: Vero E6 cells expressing SARS-CoV-2 spike and human TMPRSS2; assay type: cell-based; settings: Vero E6, 10 μM vs DMSO
[10] = test system: human TMPRSS2; assay type: cell-based; settings: Vero E6 lysates, 10 μM, FIG. 7
[11] = test system: SARS-CoV-2; assay: SARS-CoV-2 infection of VeroE6/TMPRSS2 cells, qRT-PCR; assay type: cell-based; settings: VeroE6/TMPRSS2 cells, 5, 7.5, 10 μM, 48 hours, FIG. 8
Description: (§2) FIG. 8 illustrates results obtained when VeroE6/TMPRSS2 or Caco2 cells were treated with DMSO or 5 μM, 7.5 μM, and 10 μM CT1107 and infected with SARS-CoV-2 for 48 hours. RNA was isolated and qRT-PCR was performed with virus-specific and 18S primers. Viral RNA was normalized to 18S RNA.
(§3) It was tested whether Sigma1-targeting compounds are antiviral in additional cell lines. VeroE6 cells stably expressing TMPRSS2and Caco-2 (human colorectal epithelial cells) were tested. […] In certain embodiments, these compounds are antiviral in primary respiratory epithelial cells.

[12] = test system: SARS-CoV-2; assay: SARS-CoV-2 infection of Caco2 cells, qRT-PCR; assay type: cell-based; settings: Caco2 cells, 5, 7.5, 10 μM, 48 hours, FIG. 8
Description: as §2, §3

[13] = test system: VeroE6 cells stably expressing TMPRSS2; assay: Toxicity in VeroE6/TMPRSS2 cells; assay type: cell-based; settings: VeroE6/TMPRSS2 cells, 5, 7.5, 10 μM
Description: as §3

[14] = test system: Caco-2 (human colorectal epithelial cells); assay: Toxicity in Caco-2 cells; assay type: cell-based; settings: Caco-2 cells, 5, 7.5, 10 μM
Description: as §3

Sequence of Sigma1 (Q99720 whole entry): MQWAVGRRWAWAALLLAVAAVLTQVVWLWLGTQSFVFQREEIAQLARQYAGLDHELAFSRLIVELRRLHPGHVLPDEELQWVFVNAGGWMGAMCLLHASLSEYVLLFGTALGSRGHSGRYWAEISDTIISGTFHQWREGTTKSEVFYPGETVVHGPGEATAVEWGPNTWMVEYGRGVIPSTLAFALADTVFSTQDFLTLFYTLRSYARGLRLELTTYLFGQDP

Compound	Ki [1] [nM]	IC50 [2] [nM]	effect on SARS-CoV-2 infection (in words) ([3]; FIG. 3)	further results
COc1cc(NC(=N)NCC(C)(C)COc2ccc(C(F)(F)F)cc2)cnc1C#N [Compound B, 1-(6-cyano-5-methoxypyridin-3-yl)-3-(2,2-dimethyl-3-(4-(trifluoromethyl)phenoxy)propyl)guanidine]	6	10000	–	–
COc1cc(NC(=N)NCCC(C)(C)Oc2ccc(C(F)(F)F)cc2)cnc1C#N [Compound A, 1-(6-cyano-5-methoxypyridin-3-yl)-3-(3-methyl-3-(4-(trifluoromethyl)phenoxy)butyl)guanidine]	9	8100	–	–
COC(=O)c1ccc(NC(=N)NCC(C)(C)COc2ccc(C(F)(F)F)cc2)nc1 [Compound H, methyl 6-(3-(2,2-dimethyl-3-(4-(trifluoromethyl)phenoxy)propyl)guanidino)nicotinate]	18	2900	inhibit SARS-CoV-2 infection	blocked SARS-CoV-2 infection, fold ([3]; FIG. 3): 1,000 fold
COC(=O)c1ccc(NC(=N)NCCC(C)(C)c2ccc(C(F)(F)F)cc2)nc1 [Compound G, methyl 6-(3-(3-methyl-3-(4-(trifluoromethyl)phenyl)butyl)guanidino)nicotinate]	3	2800	–	–
N=C(Nc1ccc(I)cc1)NC1C2CC3CC(C2)CC1C3 (centres unmarked) [IPAG, reference compound]	–	–	suppressed SARS-CoV-2 infection; also recorded: inhibit SARS-CoV-2 infection	blocked SARS-CoV-2 infection, fold ([3]; FIG. 3): 1,000 fold; dihydrotesterone (DHT) induced AR transcriptional activity [4]: inhibition; TMPRSS2 transcript [5]: decreased
COc1ccc(CCN2CCN(CCCc3ccccc3)CC2)cc1OC [SA4503, 1-(3,4-dimethoxyphenethyl)-4-(3-phenylpropyl) piperazine, reference compound]	–	–	did not block infection	–
COc1cc(NC(=N)NCCC(C)(C)Oc2ccc(C(F)(F)F)cc2)cnc1C#N [Compound J, 1-(6-cyano-5-methoxypyridin-3-yl)-3-(3-methyl-3-(4-(trifluoromethyl)phenoxy)butyl)guanidine]	7	8500	–	–
CC(C)(CCNC(=N)Nc1cnc(Cl)c(F)c1)Oc1ccc(C(F)(F)F)cc1 [Compound E, 1-(6-chloro-5-fluoropyridin-3-yl)-3-(3-methyl-3-(4-(trifluoromethyl)phenoxy)butyl)guanidine]	5	5000	–	–
N=C(NCCCOc1ccc(F)cc1)Nc1ccc(Cl)cc1 [CT189]	–	–	suppressed SARS-CoV-2 infection; also recorded: inhibit SARS-CoV-2 infection	blocked SARS-CoV-2 infection, fold ([3]; FIG. 3): 1,000 fold; Dengue virus infection (fold change in infection) [6]: inhibit dengue virus infection; Zika virus infection (fold change in infection) [7]: inhibit Zika virus infection; Powassan virus infection (fold change in infection) [8]: inhibit Powassan virus infection; dihydrotesterone (DHT) induced AR transcriptional activity [4]: inhibition
CC(C)(CCNC(=N)Nc1ccc(Cl)c(Cl)c1)Oc1ccc(C(F)(F)F)cc1 [Compound D, 1-(3,4-dichlorophenyl)-3-(3-methyl-3-(4-(trifluoromethyl)phenoxy)butyl)guanidine]	8	3000	–	–
O=C(CCCN1CCC(O)(c2ccc(Cl)cc2)CC1)c1ccc(F)cc1 [haloperidol, 4-[4-(4-chlorophenyl)-4-hydroxypiperidin-1-yl]-1-(4-fluorophenyl)butan-1-one, reference compound]	–	–	suppressed SARS-CoV-2 infection	effect on SARS-CoV-2 infection (in words) ([3]; FIG. 3, listed as Haloperidol): clear but modest antiviral effect
COc1cc(NC(=N)NCCC(C)(C)c2ccc(C(F)(F)F)cc2)ncc1C#N [Compound F, 1-(5-cyano-4-methoxypyridin-2-yl)-3-(3-methyl-3-(4-(trifluoromethyl)phenyl)butyl)guanidine]	11	3000	–	blocked SARS-CoV-2 infection, fold ([3]; FIG. 3): 10,000 fold; effect on SARS-CoV-2 infection (in words) ([3]; FIG. 3, listed as CT1107): suppressed SARS-CoV-2 infection; also recorded: inhibit SARS-CoV-2 infection; also recorded: most potent inhibitor of CoV-2 infection; number of syncytia ([9]; FIG. 5): significant decrease; size of syncytia (number of nuclei per syncytia) ([9]; FIG. 6): significant decrease; TMPRSS2 protein level [10]: clear decrease; antiviral effect on SARS-CoV-2 [11]: potently antiviral; antiviral effect on SARS-CoV-2 [12]: potently antiviral; toxicity [13]: without toxicity; toxicity [14]: without toxicity; Dengue virus infection (fold change in infection) [6]: inhibit dengue virus infection; Zika virus infection (fold change in infection) [7]: inhibit Zika virus infection; Powassan virus infection (fold change in infection) [8]: inhibit Powassan virus infection
Cc1cc(OCCN2CCOCC2)nn1-c1ccc2ccccc2c1 [Compound S1RA, 4-[2-[[5-methyl-1-(2-naphthalenyl)-1H-pyrazol-3-yl]oxy]ethyl]morpholine, reference compound]	–	–	did not block infection; also recorded: does not block infection	–
O=C(OCCN1CCOCC1)C1(c2ccccc2)CCCCC1 [PRE084, 2-morpholin-4-ylethyl 1-phenylcyclohexane-1-carboxylate, reference compound]	–	–	did not block infection	–
CC(C)(CCNC(=N)Nc1cnc(C(F)(F)F)nc1)Oc1ccc(C(F)(F)F)cc1 [Compound I, 1-(3-methyl-3-(4-(trifluoromethyl)phenoxy)butyl)-3-(2-(trifluoromethyl)pyrimidin-5-yl)guanidine]	35	10500	–	–
